Results taken from patent US20250049033A1, “PESTICIDALLY ACTIVE PYRIDAZINONE COMPOUNDS” (SYNGENTA CROP PROTECTION AG, priority 2021, published 2025).

Key:
Format in all cases: in vivo
Myzus persicae [1] = assay: Activity against Myzus persicae (green peach aphid), feeding/contact activity; conditions: foliar, 144 h, application rate 200 ppm, 6 days after infestation, sunflower leaf discs, mixed ages
Description: Example B5: Activity Against Myzus persicae (Green Peach Aphid). Feeding/Contact Activity
Sunflower leaf discs were placed onto agar in a 24-well microtiter plate and sprayed with aqueous test solutions prepared from 10′000 ppm DMSO stock solutions. After drying, the leaf discs were infested with an aphid population of mixed ages. The samples were assessed for mortality 6 days after infestation.

Diabrotica balteata = assay: Activity against Diabrotica balteata (corn root worm), maize sprouts, L2 larvae; conditions: 96 h, application rate 200 ppm, 4 days after infestation, vs untreated, read-out: control in at least one of the two categories (mortality or growth inhibition)
Description: Example B2: Activity Against Diabrotica balteata (Corn Root Worm)
Maize sprouts placed onto an agar layer in 24-well microtiter plates were treated with aqueous test solutions prepared from 10′000 ppm DMSO stock solutions by spraying. After drying, the plates were infested with L2 larvae (6 to 10 per well). The samples were assessed for mortality and growth inhibition in comparison to untreated samples 4 days after infestation.

Spodoptera littoralis = assay: Activity against Spodoptera littoralis (Egyptian cotton leaf worm), cotton leaf discs, L1 larvae; conditions: foliar, 72 h, application rate 200 ppm, 3 days after infestation, vs untreated, read-out: control in at least one of the three categories (mortality, anti-feedant effect, or growth inhibition)
Description: Example B8: Activity Against Spodoptera littoralis (Egyptian Cotton Leaf Worm)
Cotton leaf discs were placed onto agar in 24-well microtiter plates and sprayed with aqueous test solutions prepared from 10′000 ppm DMSO stock solutions. After drying the leaf discs were infested with five L1 larvae. The samples were assessed for mortality, anti-feeding effect, and growth inhibition in comparison to untreated samples 3 days after infestation. Control of Spodoptera littoralis by a test sample is given when at least one of the categories mortality, anti-feedant effect, and growth inhibition is higher than the untreated sample.

Myzus persicae [2] = assay: Activity against Myzus persicae (green peach aphid), intrinsic activity; conditions: 120 h, test rate 12 ppm, 5 days after infestation, sucrose solution through Parafilm
Description: Example B6: Activity Against Myzus persicae (Green Peach Aphid). Intrinsic Activity
Test compounds prepared from 10′000 ppm DMSO stock solutions were applied by pipette into 24-well microtiter plates and mixed with sucrose solution. The plates were closed with a stretched Parafilm. A plastic stencil with 24 holes was placed onto the plate and infested pea seedlings were placed directly on the Parafilm. The infested plate was closed with a gel blotting paper and another plastic stencil and then turned upside down. The samples were assessed for mortality 5 days after infestation.

Plutella xylostella = assay: Activity against Plutella xylostella (diamond back moth), artificial diet, eggs; conditions: 192 h, application rate 200 ppm, 8 days after infestation, vs untreated, read-out: control in at least one of the two categories (mortality or growth inhibition)
Description: Example B7: Activity Against Plutella xylostella (Diamond Back Moth)
24-well microtiter plates with artificial diet were treated with aqueous test solutions prepared from 10′000 ppm DMSO stock solutions by pipetting. After drying, Plutella eggs were pipetted through a plastic stencil onto a gel blotting paper and the plate was closed with it. The samples were assessed for mortality and growth inhibition in comparison to untreated samples 8 days after infestation. The following compounds gave an effect of at least 80% control in at least one of the two categories (mortality or growth inhibition) at an application rate of 200 ppm: P1, P2, P3, P4, P6, P7, P8, P9, P10, P11, P12, P13, P14, P15, P16, P17, P18, P19, P20, P21, P22, P23, P24, P25, P26, P27.

Euschistus heros = assay: Activity against Euschistus heros (neotropical brown stink bug), soybean leaves, N2 nymphs; conditions: 120 h, application rate 200 ppm, 5 days after infestation, vs untreated, read-out: effect in at least one of the two categories (mortality or growth inhibition)
Description: Example B3: Activity Against Euschistus heros (Neotropical Brown Stink Bug)
Soybean leaves on agar in 24-well microtiter plates were sprayed with aqueous test solutions prepared from 10′000 ppm DMSO stock solutions. After drying the leaves were infested with N2 nymphs. The samples were assessed for mortality and growth inhibition in comparison to untreated samples 5 days after infestation.

Chilo suppressalis = assay: Activity against Chilo suppressalis (striped rice stemborer), artificial diet, L2 larvae; conditions: 144 h, application rate 200 ppm, 6 days after infestation, vs untreated, read-out: control in at least one of the three categories (mortality, anti-feedant effect, or growth inhibition)
Description: Example B1: Activity Against Chilo suppressalis (Striped Rice Stemborer)
24-well microtiter plates with artificial diet were treated with aqueous test solutions prepared from 10′000 ppm DMSO stock solutions by pipetting. After drying, the plates were infested with L2 larvae (6-8 per well). The samples were assessed for mortality, anti-feeding effect, and growth inhibition in comparison to untreated samples 6 days after infestation. Control of Chilo suppressalis by a test sample is given when at least one of the categories mortality, anti-feedant effect, and growth inhibition is higher than the untreated sample.

Tetranychus urticae = assay: Activity against Tetranychus urticae (two-spotted spider mite), feeding/contact activity; conditions: foliar, 192 h
Description: Example B9: Activity Against Tetranychus urticae (Two-Spotted Spider Mite). Feeding/Contact Activity
Bean leaf discs on agar in 24-well microtiter plates were sprayed with aqueous test solutions prepared from 10′000 ppm DMSO stock solutions. After drying the leaf discs were infested with a mite population of mixed ages. The samples were assessed for mortality on mixed population (mobile stages) 8 days after infestation.

C[C@@H](c1ncnn1C1=NN(C)C(=O)CC1)N(C)c1ncnc2c(C(F)(F)F)cc(Cl)cc12 [P24]
≥ 80%: mortality at 200 ppm (Myzus persicae [1]) | percent control (mortality or growth inhibition) at 200 ppm (Diabrotica balteata) | percent control (mortality, anti-feedant effect or growth inhibition) at 200 ppm (Spodoptera littoralis) | mortality at 12 ppm (Myzus persicae [2]) | percent control (mortality or growth inhibition) at 200 ppm (Plutella xylostella) | percent effect (mortality or growth inhibition) at 200 ppm (Euschistus heros) | percent control (mortality, anti-feedant effect or growth inhibition) at 200 ppm (Chilo suppressalis)

C[C@@H](c1ncnn1-c1ccc(=O)n(C)n1)N(C)c1ncnc2c(C(F)(F)F)cc(Cl)cc12 [P6, 6-[5-[(1S)-1-[[6-chloro-8-(trifluoro-methyl)quinazolin-4-yl]-methyl-amino]ethyl]-1,2,4-triazol-1-yl]-2-methyl-pyr-idazin-3-one]
≥ 80%: mortality at 200 ppm (Myzus persicae [1]) | mortality at 200 ppm (Tetranychus urticae) | percent control (mortality or growth inhibition) at 200 ppm (Diabrotica balteata) | percent control (mortality, anti-feedant effect or growth inhibition) at 200 ppm (Spodoptera littoralis) | mortality at 12 ppm (Myzus persicae [2]) | percent control (mortality or growth inhibition) at 200 ppm (Plutella xylostella) | percent effect (mortality or growth inhibition) at 200 ppm (Euschistus heros) | percent control (mortality, anti-feedant effect or growth inhibition) at 200 ppm (Chilo suppressalis)

C[C@H](Nc1ncnc2c(C(F)(F)F)cc(C(F)(F)F)cc12)c1ncnn1C1=NN(C)C(=O)CC1 [P7, 6-[5-[(1S)-1-[[6,8-bis(trifluoromethyl)quinazolin-4-yl]amino]ethyl]-1,2,4-triazol-1-yl]-2-methyl-4,5-dihydropyridazin-3-one]
≥ 80%: mortality at 200 ppm (Myzus persicae [1]) | percent control (mortality or growth inhibition) at 200 ppm (Diabrotica balteata) | percent control (mortality, anti-feedant effect or growth inhibition) at 200 ppm (Spodoptera littoralis) | mortality at 12 ppm (Myzus persicae [2]) | percent control (mortality or growth inhibition) at 200 ppm (Plutella xylostella) | percent effect (mortality or growth inhibition) at 200 ppm (Euschistus heros) | percent control (mortality, anti-feedant effect or growth inhibition) at 200 ppm (Chilo suppressalis)

CC(Nc1ncnc2c(C(F)(F)F)cc(C(F)(F)F)cc12)c1nccnc1-c1ccc(=O)n(C)n1 (stereo not drawn) [P8, 6-[3-[1-[[6,8-bis-(trifluoromethyl)-quinazolin-4-yl]amino]ethyl]pyr-azin-2-yl]-2-meth-yl-pyridazin-3-one]
≥ 80%: mortality at 200 ppm (Myzus persicae [1]) | percent control (mortality or growth inhibition) at 200 ppm (Diabrotica balteata) | percent control (mortality, anti-feedant effect or growth inhibition) at 200 ppm (Spodoptera littoralis) | mortality at 12 ppm (Myzus persicae [2]) | percent control (mortality or growth inhibition) at 200 ppm (Plutella xylostella) | percent effect (mortality or growth inhibition) at 200 ppm (Euschistus heros) | percent control (mortality, anti-feedant effect or growth inhibition) at 200 ppm (Chilo suppressalis)

CCn1nc(-n2ncnc2[C@H](C)N(C)c2ncnc3c(C(F)(F)F)cc(Cl)cc23)ccc1=O [P15, 6-[5-[(1S)-1-[[6-chloro-8-(trifluoro-methyl)quinazolin-4-yl]-methyl-amino]ethyl]-1,2,4-triazol-1-yl]-2-ethyl-pyrid-azin-3-one]
≥ 80%: mortality at 200 ppm (Myzus persicae [1]) | percent control (mortality or growth inhibition) at 200 ppm (Diabrotica balteata) | percent control (mortality, anti-feedant effect or growth inhibition) at 200 ppm (Spodoptera littoralis) | mortality at 12 ppm (Myzus persicae [2]) | percent control (mortality or growth inhibition) at 200 ppm (Plutella xylostella) | percent effect (mortality or growth inhibition) at 200 ppm (Euschistus heros) | percent control (mortality, anti-feedant effect or growth inhibition) at 200 ppm (Chilo suppressalis)

CC(c1nccnc1-c1ccc(=O)n(C)n1)N(C)c1ncnc2c(C(F)(F)F)cc(Cl)cc12 (racemic) [P21, 6-[3-[1-[[6-chloro-8-(trifluoromethyl)quinazolin-4-yl]-methyl-amino]ethyl]pyrazin-2-yl]-2-methyl-pyridazin-3-one]
≥ 80%: mortality at 200 ppm (Myzus persicae [1]) | percent control (mortality or growth inhibition) at 200 ppm (Diabrotica balteata) | percent control (mortality, anti-feedant effect or growth inhibition) at 200 ppm (Spodoptera littoralis) | mortality at 12 ppm (Myzus persicae [2]) | percent control (mortality or growth inhibition) at 200 ppm (Plutella xylostella) | percent effect (mortality or growth inhibition) at 200 ppm (Euschistus heros) | percent control (mortality, anti-feedant effect or growth inhibition) at 200 ppm (Chilo suppressalis)

CC(Nc1ncnc2c(C(F)(F)F)cc(Cl)cc12)c1nccnc1-c1ccc(=O)n(C)n1 (stereo not drawn) [P10, 6-[3-[1-[[6-chloro-8-(trifluorometh-yl)quinazolin-4-yl]amino]ethyl]pyr-azin-2-yl]-2-methyl-pyridazin-3-one]
≥ 80%: mortality at 200 ppm (Myzus persicae [1]) | percent control (mortality or growth inhibition) at 200 ppm (Diabrotica balteata) | percent control (mortality, anti-feedant effect or growth inhibition) at 200 ppm (Spodoptera littoralis) | mortality at 12 ppm (Myzus persicae [2]) | percent control (mortality or growth inhibition) at 200 ppm (Plutella xylostella) | percent effect (mortality or growth inhibition) at 200 ppm (Euschistus heros) | percent control (mortality, anti-feedant effect or growth inhibition) at 200 ppm (Chilo suppressalis)

CC(Nc1ncnc2c(Cl)cc(C(F)(F)F)cc12)c1nccnc1-c1ccc(=O)n(C)n1 (stereo not drawn) [P13, 6-[3-[1-[[8-chloro-6-(trifluoromethyl)quinazolin-4-yl]amino]ethyl]pyrazin-2-yl]-2-methyl-pyridazin-3-one]
≥ 80%: mortality at 200 ppm (Myzus persicae [1]) | percent control (mortality or growth inhibition) at 200 ppm (Diabrotica balteata) | percent control (mortality, anti-feedant effect or growth inhibition) at 200 ppm (Spodoptera littoralis) | mortality at 12 ppm (Myzus persicae [2]) | percent control (mortality or growth inhibition) at 200 ppm (Plutella xylostella) | percent effect (mortality or growth inhibition) at 200 ppm (Euschistus heros) | percent control (mortality, anti-feedant effect or growth inhibition) at 200 ppm (Chilo suppressalis)

CC(c1nccnc1-c1ccc(=O)n(C)n1)N(C)c1ncnc2c(Cl)cc(C(F)(F)F)cc12 (stereo not drawn) [P12, 6-[3-[1-[[8-chloro-6-(trifluoromethyl)quinazolin-4-yl]-methyl-amino]ethyl]pyrazin-2-yl]-2-methyl-pyridazin-3-one]
≥ 80%: mortality at 200 ppm (Myzus persicae [1]) | percent control (mortality or growth inhibition) at 200 ppm (Diabrotica balteata) | percent control (mortality, anti-feedant effect or growth inhibition) at 200 ppm (Spodoptera littoralis) | mortality at 12 ppm (Myzus persicae [2]) | percent control (mortality or growth inhibition) at 200 ppm (Plutella xylostella) | percent effect (mortality or growth inhibition) at 200 ppm (Euschistus heros) | percent control (mortality, anti-feedant effect or growth inhibition) at 200 ppm (Chilo suppressalis)

C[C@H](Nc1ncnc2c(C(F)(F)F)cc(C(F)(F)F)cc12)c1ncnn1-c1ccc(=O)n(C)n1 [P3, 6-[5-[(1S)-1-[[6,8-bis(trifluoromethyl)quinazolin-4-yl]amino]ethyl]-1,2,4-triazol-1-yl]-2-methyl-pyridazin-3-one]
≥ 80%: mortality at 200 ppm (Myzus persicae [1]) | percent control (mortality or growth inhibition) at 200 ppm (Diabrotica balteata) | percent control (mortality, anti-feedant effect or growth inhibition) at 200 ppm (Spodoptera littoralis) | mortality at 12 ppm (Myzus persicae [2]) | percent control (mortality or growth inhibition) at 200 ppm (Plutella xylostella) | percent effect (mortality or growth inhibition) at 200 ppm (Euschistus heros) | percent control (mortality, anti-feedant effect or growth inhibition) at 200 ppm (Chilo suppressalis)

CCn1nc(-n2ncnc2[C@H](C)N(C)c2ncnc3c(Cl)cc(C(F)(F)F)cc23)ccc1=O [P22, 6-[5-[(1S)-1-[[8-chloro-6-(trifluoro-methyl)quinazolin-4-yl]-methyl-amino]ethyl]-1,2,4-triazol-1-yl]-2-ethyl-pyrid-azin-3-one]
≥ 80%: mortality at 200 ppm (Myzus persicae [1]) | percent control (mortality or growth inhibition) at 200 ppm (Diabrotica balteata) | percent control (mortality, anti-feedant effect or growth inhibition) at 200 ppm (Spodoptera littoralis) | mortality at 12 ppm (Myzus persicae [2]) | percent control (mortality or growth inhibition) at 200 ppm (Plutella xylostella) | percent effect (mortality or growth inhibition) at 200 ppm (Euschistus heros) | percent control (mortality, anti-feedant effect or growth inhibition) at 200 ppm (Chilo suppressalis)
